Assay results as given in the supplement of paper PMC10307832.

Columns and labels:
Test in all cases: relative viability (nuclei count vs DMSO), 5 days (fraction); higher = more cells survive
COR-L23 = system: COR-L23
In short: (§1)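 After 5 days of treatment, lung cancer cells in 1536-well plates were fixed and stained in a single step (final 0.05% Triton X-100, 1% formaldehyde, 1 ug/ml Hoechst) and their nuclei counted on 4× images. Treatment had been applied by pin tool the day after seeding as one drug alone or as a fixed anchor-drug dose with five library-drug doses (not always all listed) in √10 steps. Relative viability is the nuclei count of treated wells divided by that of vehicle wells, and values are medians of duplicate plates.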

NCI-H1395 = system: NCI-H1395
In short: as §1

NCI-H1793 = system: NCI-H1793
In short: as §1

NCI-H358 = system: NCI-H358
In short: as §1

NCI-H23 = system: NCI-H23
In short: as §1

HCC-366 = system: HCC-366
In short: as §1

SK-LU-1 = system: SK-LU-1
In short: as §1

HARA = system: HARA
In short: as §1

NCI-H2023 = system: NCI-H2023
In short: as §1

NCI-H1993 = system: NCI-H1993
In short: as §1

EMC-BAC-2 = system: EMC-BAC-2
In short: as §1

HOP-62 = system: HOP-62
In short: as §1

HCC-78 = system: HCC-78
In short: as §1

NCI-H2405 = system: NCI-H2405
In short: as §1

NCI-H1944 = system: NCI-H1944
In short: as §1

HCC-15 = system: HCC-15
In short: as §1

NCI-H838 = system: NCI-H838
In short: as §1

NCI-H2228 = system: NCI-H2228
In short: as §1

NCI-H2126 = system: NCI-H2126
In short: as §1

ABC-1 = system: ABC-1
In short: as §1

LC-2-ad = system: LC-2-ad
In short: as §1

Q: What does the source list for `Cc1sc2c(c1C)C(c1ccc(Cl)cc1)=N[C@@H](CC(=O)OC(C)(C)C)c1nnc(C)n1-2` [JQ1] + Cc1nc(NC(=O)N2CCC[C@H]2C(N)=O)sc1-c1ccnc(C(C)(C)C(F)(F)F)c1 [Alpelisib] (partner 2 µM)?
A: relative viability (COR-L23; first compound 0.04 µM): 0.814; relative viability (COR-L23; first compound 0.1265 µM): 0.708; relative viability (COR-L23; first compound 0.4 µM): 0.754; relative viability (COR-L23; first compound 1.265 µM): 0.36; relative viability (COR-L23; first compound 4 µM): 0.21; relative viability (NCI-H1395; first compound 0.04 µM): 1.03; relative viability (NCI-H1395; first compound 0.1265 µM): 0.856; relative viability (NCI-H1395; first compound 0.4 µM): 0.813; relative viability (NCI-H1395; first compound 1.265 µM): 0.495; relative viability (NCI-H1395; first compound 4 µM): 0.404; relative viability (NCI-H1793; first compound 0.04 µM): 0.653; relative viability (NCI-H1793; first compound 0.1265 µM): 0.781; relative viability (NCI-H1793; first compound 0.4 µM): 0.558; relative viability (NCI-H1793; first compound 1.265 µM): 0.633; relative viability (NCI-H1793; first compound 4 µM): 0.696; relative viability (NCI-H358; first compound 0.04 µM): 0.761; relative viability (NCI-H358; first compound 0.1265 µM): 1.05; relative viability (NCI-H358; first compound 0.4 µM): 0.93; relative viability (NCI-H358; first compound 1.265 µM): 0.515; relative viability (NCI-H358; first compound 4 µM): 0.527; relative viability (NCI-H23; first compound 0.04 µM): 0.62; relative viability (NCI-H23; first compound 0.1265 µM): 0.726; relative viability (NCI-H23; first compound 0.4 µM): 0.454; relative viability (NCI-H23; first compound 1.265 µM): 0.292; relative viability (NCI-H23; first compound 4 µM): 0.297; relative viability (HCC-366; first compound 0.04 µM): 0.405; relative viability (HCC-366; first compound 0.4 µM): 0.404; relative viability (HCC-366; first compound 1.265 µM): 0.233; relative viability (HCC-366; first compound 4 µM): 0.215; relative viability (SK-LU-1; first compound 0.04 µM): 1.11; relative viability (SK-LU-1; first compound 0.1265 µM): 0.586; relative viability (SK-LU-1; first compound 0.4 µM): 0.287; relative viability (SK-LU-1; first compound 1.265 µM): 0.167; relative viability (SK-LU-1; first compound 4 µM): 0.158; relative viability (HARA; first compound 0.04 µM): 0.915; relative viability (HARA; first compound 0.1265 µM): 0.598; relative viability (HARA; first compound 0.4 µM): 0.283; relative viability (HARA; first compound 1.265 µM): 0.266; relative viability (HARA; first compound 4 µM): 0.156; relative viability (NCI-H2023; first compound 0.04 µM): 0.544; relative viability (NCI-H2023; first compound 0.1265 µM): 0.651; relative viability (NCI-H2023; first compound 0.4 µM): 0.531; relative viability (NCI-H2023; first compound 1.265 µM): 0.213; relative viability (NCI-H2023; first compound 4 µM): 0.217; relative viability (NCI-H1993; first compound 0.04 µM): 0.705; relative viability (NCI-H1993; first compound 0.1265 µM): 0.653; relative viability (NCI-H1993; first compound 0.4 µM): 0.667; relative viability (NCI-H1993; first compound 1.265 µM): 0.665; relative viability (NCI-H1993; first compound 4 µM): 0.665; relative viability (EMC-BAC-2; first compound 0.04 µM): 0.663; relative viability (EMC-BAC-2; first compound 0.1265 µM): 0.749; relative viability (EMC-BAC-2; first compound 0.4 µM): 0.576; relative viability (EMC-BAC-2; first compound 1.265 µM): 0.439; relative viability (EMC-BAC-2; first compound 4 µM): 0.386; relative viability (HOP-62; first compound 0.04 µM): 1.2; relative viability (HOP-62; first compound 0.1265 µM): 0.728; relative viability (HOP-62; first compound 0.4 µM): 0.332; relative viability (HOP-62; first compound 1.265 µM): 0.182; relative viability (HOP-62; first compound 4 µM): 0.09; relative viability (HCC-78; first compound 0.04 µM): 0.336; relative viability (HCC-78; first compound 0.1265 µM): 0.34; relative viability (HCC-78; first compound 0.4 µM): 0.281; relative viability (HCC-78; first compound 1.265 µM): 0.234; relative viability (HCC-78; first compound 4 µM): 0.252; relative viability (NCI-H2405; first compound 0.04 µM): 0.824; relative viability (NCI-H2405; first compound 0.4 µM): 0.74; relative viability (NCI-H2405; first compound 1.265 µM): 0.436; relative viability (NCI-H2405; first compound 4 µM): 0.256; relative viability (NCI-H1944; first compound 0.04 µM): 0.709; relative viability (NCI-H1944; first compound 0.1265 µM): 0.722; relative viability (NCI-H1944; first compound 0.4 µM): 0.715; relative viability (NCI-H1944; first compound 1.265 µM): 0.544; relative viability (NCI-H1944; first compound 4 µM): 0.397; relative viability (HCC-15; first compound 0.04 µM): 0.806; relative viability (HCC-15; first compound 0.4 µM): 0.768; relative viability (HCC-15; first compound 1.265 µM): 0.417; relative viability (HCC-15; first compound 4 µM): 0.449; relative viability (NCI-H838; first compound 0.04 µM): 1.03; relative viability (NCI-H838; first compound 0.1265 µM): 0.698; relative viability (NCI-H838; first compound 0.4 µM): 0.882; relative viability (NCI-H838; first compound 1.265 µM): 0.291; relative viability (NCI-H838; first compound 4 µM): 0.263; relative viability (NCI-H2228; first compound 0.04 µM): 0.644; relative viability (NCI-H2228; first compound 0.1265 µM): 0.602; relative viability (NCI-H2228; first compound 0.4 µM): 0.504; relative viability (NCI-H2228; first compound 1.265 µM): 0.497; relative viability (NCI-H2228; first compound 4 µM): 0.451; relative viability (NCI-H2126; first compound 0.04 µM): 0.797; relative viability (NCI-H2126; first compound 0.1265 µM): 0.682; relative viability (NCI-H2126; first compound 0.4 µM): 0.681; relative viability (NCI-H2126; first compound 1.265 µM): 0.516; relative viability (NCI-H2126; first compound 4 µM): 0.47; relative viability (ABC-1; first compound 0.04 µM): 1.07; relative viability (ABC-1; first compound 0.1265 µM): 1.04; relative viability (ABC-1; first compound 0.4 µM): 0.829; relative viability (ABC-1; first compound 1.265 µM): 0.424; relative viability (ABC-1; first compound 4 µM): 0.465; relative viability (LC-2-ad; first compound 0.04 µM): 0.953; relative viability (LC-2-ad; first compound 0.1265 µM): 0.794; relative viability (LC-2-ad; first compound 0.4 µM): 0.54; relative viability (LC-2-ad; first compound 1.265 µM): 0.289; relative viability (LC-2-ad; first compound 4 µM): 0.217
